The values below come from US20230190660A1, “ENCAPSULATED PHARMACEUTICAL COMPOSITIONS, RELATED METHODS OF MAKING, AND RELATED METHODS OF TREATMENT” (PATH, priority 2021, published 2023).

The test system of series [1] is blood glucose levels. Put plainly: Glucose lowering in STZ diabetic rodent model. The series is classed as in vivo, Sprague Dawley rodents. To be noted: SC. As for the experimental part: Briefly, the male Sprague Dawley rodents (200-250 grams) are fasted 4 hours before given 65 mg/kg intraperitoneal (IP) streptozotocin (STZ) to induce diabetes and randomized into treatment groups based on the post-STZ (˜1 week) baseline glucose levels (see TABLE 10). Only rodents with hyperglycemia (glycose levels […]) are used in the study. Rodents are housed on a 12-hour light/dark cycle with no more than 2 rats per cage depending on size and acclimatized for not less than 5 days. Blood glucose levels are measured using calibrated Glucocard Vital glycometers (Arkray, Minneapolis, Minn.) and levels are reported as mg/dL. For each timepoint, blood (<5 uL) is acquired from a tail snip and directly applied to a glucose test strip. Data for each quantitative timepoint is presented as the average+/−SEM (standard error of the mean). Differences between vehicle control and each treatment groups are determined by Student's t-test using GraphPad Prism (current version) with an alpha threshold of 0.05.
Insulin and blood glucose levels were measured before administration, at 30 minutes, 60 minutes, 90 minutes, 2 hours, 4 hours, 8 hours, and 24 hours after dosing.

For series [2], the system named is glucose levels. Put plainly: Confirmation study: glucose levels in rats, additional doses. The series is classed as in vivo. To be noted: subQ, 5 IU/kg. The text has this:
(§1) The present Example describes a) selection of the dosage presentation for the lead ion-pair and the dose (see TABLE 8, FIGS. 4 and 14A-14D) and b) validation of the lead ion-pair formulation in their ability to lower glucose levels upon oral administration of the formulations (see FIGS. 15A-15D). In part a) of the present Example, we compared the capsule and FDT presentation formats for both ion-pair formulations. We also included β-CD-encapsulated ion-pair complex to see whether the encapsulation of ion-pair within β-CD offers further improvement in absorption of insulin. Liquid insulin given subcutaneously (subQ) was used a comparator in both studies.

Series [3] deals with glucose levels. Put plainly: Pilot study: glucose levels in rats after oral ion-pair formulations or subQ insulin. The note with it: subQ, 5 IU/kg. It counts as in vivo.
Description: as §1

The nature of series [4]: Static gastrointestinal use testing (GUT) model, gastric fluid. To be noted: 30 minutes at 37° C.
Description: The purpose of this evaluation was to test whether the bile-insulin ion-pair encapsulated within the resistant starch polymer is protected from pH and enzymatic degradation encountered in the gastrointestinal compartments. Since the in vivo feasibility of insulin FDTs is proposed in a diabetic rodent model, we scaled down the size of the FDTs based on limited size of the oral cavity in rats. We also included commercially available gelatin oral capsules fit for oral delivery to rats (FIGS. 12A and 12B). Biorelevant dissolution media simulating the pH and enzymatic conditions in the different sections of gastrointestinal tract, such as fasted state simulated gastric fluid (FASSFG), and intestinal fluid in the duodenum and jejunum (TABLE 7) were generated following the composition recipe reported by Jantratid et al. (2009).
Samples were incubated in the different fluid media maintained at 37° C. and at the 30-minute time point, removed and tested for insulin content. Unformulated insulin was used as a control for comparative evaluation (FIGS. 13A and 13B).

In the case of insulin, the “time after administration within which glucose levels rise” value in series [1] is at most 4 h. In series [1] (compared to diabetic rodent levels), the glucose lowering effect is over 60%. Further, the “drop in glucose levels” value in series [2] (T=1 hour) is listed as about 80%. Besides, the glucose level is reported as about 100 mg/dL in series [2] (T=1 hour (from 600 mg/dL)) and 100 mg/dL in series [3] (within the first hour (from 600 mg/dL)). Further, in series [3] (late time point (T=8 hours), similar to T=0), the glucose levels amounted to 600 mg/dL. For the same substance, the “lowering of glucose levels” value in series [3] (within the first hour of administration) is recorded as “about 80%”. In addition, the “degradation in the presence of gastric fluid” value in series [4] was “degraded almost completely”.
